Columns and labels:
Type in all cases: cell-based
Settings in all cases: after 10, 20, 40 and 60 minutes at all dilutions 1:100, 1:200, 1:400, 1:800
Pseudomonas aeruginosa = assay: antimicrobial screening by agar dilution, Ps. aeruginosa
Method: (§1) The antimicrobial properties of the 4,5-bis(4-bromophenyl)-1-hexyl-2-(3,4-dimethoxyphenyl)-1H-imidazole was studied by the method of agar dilution. Test solutions of each compound was prepared in concentration of 1% using dimethylformamide as a solvent then they were diluted in physiological solution to obtain the final experimental dilutions 1: 100, 1:200, 1:400, 1:800. The effect of these substances were compared with furacillin in a controlled study. The testing microbes used were gram positive bacteria Staphylococcus aureus, gram negative bacteria Pseudomonas aeruginosa and Escherichia coli and Candida albicans fungi were taken. The experiments used for this survey were meat-pentonlu agar (EPA) for cultivation of bacteria and Saburo environment for fungi. Each experiment used 1 ml of test solution on each plate 500 min. Add 2 drops of emulsified with microbes feel. All experimental samples were taken from the agar after 10, 20, 40, 60 minutes in the environment on the basis of Patrk planted. Bacteria were cultivated at a temperature of 37° C. for 1 day and the mushroom was kept in a thermostat for […] at a temperature of 28° C. Then results were checked.

Candida albicans = assay: antimicrobial screening by agar dilution, Candida albicans
Method: as §1

Escherichia coli = assay: antimicrobial screening by agar dilution, E. coli
Method: as §1

Staphylococcus aureus = assay: antimicrobial screening by agar dilution, St. aureus
Method: as §1

Measured: inhibition activity

CCCCCCn1c(-c2ccc(OC)c(OC)c2)nc(-c2ccc(Br)cc2)c1-c1ccc(Br)cc1 [4,5-bis(4-bromophenyl)-1-hexyl-2-(3,4-dimethoxyphenyl)-1H-imidazole]
highest inhibition activity: all assays above

Source: US11981641B1, “4,5-bis(4-bromophenyl)-1-hexyl-2-(3,4-dimethoxyphenyl)-1H-imidazole as an antimicrobial compound” (KING FAISAL UNIVERSITY, priority 2023, dated 2024)
